The data set in a line: Stability of the aldehyde in solution. It counts as physicochemical. Conditions: slowly converts into 1.

From PMC12051037 (Chemistry (Weinheim an der Bergstrasse, Germany), 2024) come the findings set out here.

“Also recorded” adds a separate entry of the source.

As to tumonolide aldehyde [compound 2], the stability result is given as “not stable; also recorded: poor stability”.
